Measured values: article PMC7035281 (Nature Communications, 2020)

Legend:
LeuT (LeuTWT) [1] = biological target: T1, LeuT (LeuTWT) (Aquifex aeolicus, UniProt O67854, W8A); assay: scintillation proximity saturation binding, purified protein in DDM; X-ray structure […] Å
T1 construct: gene snf; full length, C-terminal thrombin site and 8xHis tag (pET16b), E. coli C41(DE3), purified in DDM; crystal of W8A a dimer in the asymmetric unit, residues 13-511 and 13-507 visible; smFRET variant from pQO18-TEV vector, His-tagged

LeuT (LeuTWT) [2] = biological target: T2, LeuT (LeuTWT) (Aquifex aeolicus, UniProt O67854); assay: scintillation proximity saturation binding, purified protein in DDM
T2 construct: gene snf; full length, C-terminal thrombin site and 8xHis tag (pET16b), E. coli C41(DE3), purified in DDM; crystal of W8A a dimer in the asymmetric unit, residues 13-511 and 13-507 visible; smFRET variant from pQO18-TEV vector, His-tagged

`N[C@@H](Cc1ccccc1)C(=O)O` [L-Phe] showed a Kd (LeuT (LeuTWT) [1]) of 796 ± 139 nM and a Kd (LeuT (LeuTWT) [2]) of 898 ± 1130 nM.
